The target of assay [1] is acetylcholinesterase (AChE). Description: colorimetric kinetic kit assay, […] nm. The class given is biochemical. The note with it: room temperature, 10-15 min preincubation.
In assay [2] the target is β-secretase (BACE-1) (Homo sapiens, UniProt P56817). Description: fluorescence kit assay, slope based. The class given is biochemical.

Broadly, the IC50 is the midpoint of a concentration-inhibition curve. A lower IC50 goes with greater potency in that assay.

Sequence of β-secretase (BACE-1) (P56817 46-501): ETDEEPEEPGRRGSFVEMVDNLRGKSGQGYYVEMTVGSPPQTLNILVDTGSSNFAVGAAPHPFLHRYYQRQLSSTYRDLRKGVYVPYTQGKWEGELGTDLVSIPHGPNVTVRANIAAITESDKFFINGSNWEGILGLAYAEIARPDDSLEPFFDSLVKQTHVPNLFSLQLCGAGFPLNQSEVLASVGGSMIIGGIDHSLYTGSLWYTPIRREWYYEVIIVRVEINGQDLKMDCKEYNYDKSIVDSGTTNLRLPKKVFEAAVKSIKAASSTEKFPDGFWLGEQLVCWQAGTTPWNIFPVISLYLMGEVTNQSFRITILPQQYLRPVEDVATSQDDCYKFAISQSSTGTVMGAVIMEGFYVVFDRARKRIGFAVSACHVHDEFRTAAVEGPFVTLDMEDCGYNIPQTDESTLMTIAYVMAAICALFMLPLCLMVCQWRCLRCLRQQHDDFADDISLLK

Consider `O=C1C[C@@H](c2ccc(O)cc2)Oc2cc(O)cc(O)c21` [compound 1, naringenin], for which the “AChE (μg mL^-1 ± SD)” value in assay [1] worked out at 0.212 ± 0.007 µg/mL. In assay [2], this compound gave an IC50 of 1.55 µM.
The corresponding values for `O=c1c(O)c(-c2ccc(O)cc2)oc2cc(O)cc(O)c12` [compound 2, 3,4′,5,7-tetrahydroxyflavone] are 1.099 ± 0.03 µg/mL and 25.1 µM.
For `COc1c(-c2ccc(O)cc2)oc2cc(O)cc(O)c2c1=O` [compound 3, isokaempferide], in that order: 0.483 ± 0.015 µg/mL and 0.446 µM.
The corresponding values for `CC1=CC(=O)CC(C)(C)[C@@]1(O)/C=C/[C@@H](C)O[C@@H]1O[C@H](CO)[C@@H](O)[C@H](O)[C@H]1O` [compound 4, vomifoliol-9-O-β-D-glucopyranoside] are 0.452 ± 0.014 µg/mL and 0.171 µM.
`C[N+](C)(CCl)CCc1ccc(O)cc1` [compound 5, N-chloromethyl hordenine]: the “AChE (μg mL^-1 ± SD)” value in assay [1] is 0.076 ± 0.002 µg/mL. Moreover, half-maximal inhibition in assay [2] (IC50) required 1.25 µM.
The corresponding values for `CC(=O)[N+](C)(C)CCc1ccc(O)cc1` [compound 6, N-acetyl hordenine] are 2.255 ± 0.074 µg/mL and 8.21 µM.
For `CC(=O)[N+](C)(CCl)CCc1ccc(O)cc1` (centres unmarked) [compound 7, N-acetyl-N-chloromethyl-N-methyl tyramine], the “AChE (μg mL^-1 ± SD)” value in assay [1] turned out to be 0.607 ± 0.02 µg/mL. In assay [2], this compound had an IC50 of 0.494 µM.

The record behind these values is publication PMC12690644 (RSC Advances, 2025).
